Assay results from patent publication US11370798B2 (Vertex Pharmaceuticals Incorporated, priority 2012, dated 2022).
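Further: Test-compound concentration that lowers the Cisplatin IC50 by a set fold.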

These compounds were tested on HCT116 colorectal cancer cells (assay: Cisplatin sensitization assay (96 h cell viability MTS)). Settings: compound and Cisplatin added simultaneously, Cisplatin sensitization value.
Type: cell-based
How it was run: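 Compound and cisplatin added together as a full matrix of 2-fold serial dilutions from a top final concentration of 10 μM; cells incubated 96 h at 37° C, 5% CO2. Viability then read by MTS after 1 h further incubation; sensitization value reported in μM bins.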
In the case of `CN1CCN(S(=O)(=O)C2CCN(c3c(F)cncc3NC(=O)c3c(N)nn4cc(F)cnc34)CC2)CC1` [I-N-166, 2-amino-6-fluoro-N-(5-fluoro-4-(4-((4-methylpiperazin-1-yl)sulfonyl)piperidin-1-yl)pyridin-3-yl)pyrazolo[1,5-a]pyrimidine-3-carboxamide], the “Cisplatin Sensitization Assay” value is reported as “+++ (Cisplatin sensitization value of <0.02 μM)”.
With `Nc1nn2cc(F)cnc2c1C(=O)Nc1cncc(F)c1N1CCC(OCCN2CCCC2)CC1` [I-N-167, 2-amino-6-fluoro-N-(5-fluoro-4-(4-(2-(pyrrolidin-1-yl)ethoxy)piperidin-1-yl)pyridin-3-yl)pyrazolo[1,5-a]pyrimidine-3-carboxamide] the “Cisplatin Sensitization Assay” value was “+++ (Cisplatin sensitization value of <0.02 μM)”.
For `Nc1nn2cc(F)cnc2c1C(=O)Nc1cncc(F)c1N1CCN(C(=O)C2CNC2)CC1` [I-N-168, 2-amino-N-(4-(4-(azetidine-3-carbonyl)piperazin-1-yl)-5-fluoropyridin-3-yl)-6-fluoropyrazolo[1,5-a]pyrimidine-3-carboxamide], the “Cisplatin Sensitization Assay” value was “+ (Cisplatin sensitization value>0.2 μM but <5 μM)”.
With `Nc1nn2cc(F)cnc2c1C(=O)Nc1cncc(F)c1N1CCC(S(=O)(=O)N2CCC2)CC1` [I-N-169, 2-amino-N-(4-(4-(azetidin-1-ylsulfonyl)piperidin-1-yl)-5-fluoropyridin-3-yl)-6-fluoropyrazolo[1,5-a]pyrimidine-3-carboxamide] the “Cisplatin Sensitization Assay” value was “+++ (Cisplatin sensitization value of <0.02 μM)”.
`Nc1nn2cc(F)cnc2c1C(=O)Nc1cnccc1N1CCC(S(=O)(=O)N2CCOCC2)CC1` [I-N-170, 2-amino-6-fluoro-N-(4-(4-(morpholinosulfonyl)piperidin-1-yl)pyridin-3-yl)pyrazolo[1,5-a]pyrimidine-3-carboxamide] was tested, and the “Cisplatin Sensitization Assay” value was “+++ (Cisplatin sensitization value of <0.02 μM)”.
In the case of `CN1CCN(CC2CCN(c3c(F)cncc3NC(=O)c3c(N)nn4cc(F)cnc34)CC2)CC1=O` [I-N-171, 2-amino-6-fluoro-N-(5-fluoro-4-(4-((4-methyl-3-oxopiperazin-1-yl)methyl)piperidin-1-yl)pyridin-3-yl)pyrazolo[1,5-a]pyrimidine-3-carboxamide], the “Cisplatin Sensitization Assay” value is reported as “+++ (Cisplatin sensitization value of <0.02 μM)”.
`Nc1nn2cc(F)cnc2c1C(=O)Nc1cncc(F)c1N1CCN(C(=O)C2CNCCO2)CC1` (centres unmarked) [I-N-172, 2-amino-6-fluoro-N-(5-fluoro-4-(4-(morpholine-2-carbonyl)piperazin-1-yl)pyridin-3-yl)pyrazolo[1,5-a]pyrimidine-3-carboxamide] was tested, and the “Cisplatin Sensitization Assay” value was “+++ (Cisplatin sensitization value of <0.02 μM)”.
With `CN1CCCCC1C(=O)N1CCN(c2c(F)cncc2NC(=O)c2c(N)nn3cc(F)cnc23)CC1` (centres unmarked) [I-N-173, 2-amino-6-fluoro-N-(5-fluoro-4-(4-(1-methylpiperidine-2-carbonyl)piperazin-1-yl)pyridin-3-yl)pyrazolo[1,5-a]pyrimidine-3-carboxamide] the “Cisplatin Sensitization Assay” value was “+++ (Cisplatin sensitization value of <0.02 μM)”.
`CN1CCOC(C(=O)N2CCN(c3c(F)cncc3NC(=O)c3c(N)nn4cc(F)cnc34)CC2)C1` (centres unmarked) [I-N-174, 2-amino-6-fluoro-N-(5-fluoro-4-(4-(4-methylmorpholine-2-carbonyl)piperazin-1-yl)pyridin-3-yl)pyrazolo[1,5-a]pyrimidine-3-carboxamide] was tested, and the “Cisplatin Sensitization Assay” value was “+++ (Cisplatin sensitization value of <0.02 μM)”.
For `CN1CCC(S(=O)(=O)N2CCN(c3c(F)cncc3NC(=O)c3c(N)nn4cc(F)cnc34)CC2)CC1` [I-N-175, 2-amino-6-fluoro-N-(5-fluoro-4-(4-((1-methylpiperidin-4-yl)sulfonyl)piperazin-1-yl)pyridin-3-yl)pyrazolo[1,5-a]pyrimidine-3-carboxamide], the “Cisplatin Sensitization Assay” value was “+++ (Cisplatin sensitization value of <0.02 μM)”.
`Nc1nn2cc(F)cnc2c1C(=O)Nc1cnccc1N1CCN(S(=O)(=O)C2CC2)CC1` [I-N-176, 2-amino-N-(4-(4-(cyclopropylsulfonyl)piperazin-1-yl)pyridin-3-yl)-6-fluoropyrazolo[1,5-a]pyrimidine-3-carboxamide] was tested, and the “Cisplatin Sensitization Assay” value was “+++ (Cisplatin sensitization value of <0.02 μM)”.
For `Nc1nn2cc(F)cnc2c1C(=O)Nc1cnccc1N1CCN(S(=O)(=O)C2CCOCC2)CC1` [I-N-177, 2-amino-6-fluoro-N-(4-(4-((tetrahydro-2H-pyran-4-yl)sulfonyl)piperazin-1-yl)pyridin-3-yl)pyrazolo[1,5-a]pyrimidine-3-carboxamide], the “Cisplatin Sensitization Assay” value was “+++ (Cisplatin sensitization value of <0.02 μM)”.
With `CS(=O)(=O)N1CCN(c2ccncc2NC(=O)c2c(N)nn3cc(F)cnc23)CC1` [I-N-178, 2-amino-6-fluoro-N-(4-(4-(methylsulfonyl)piperazin-1-yl)pyridin-3-yl)pyrazolo[1,5-a]pyrimidine-3-carboxamide] the “Cisplatin Sensitization Assay” value was “+++ (Cisplatin sensitization value of <0.02 μM)”.
`Nc1nn2cc(F)cnc2c1C(=O)Nc1cnccc1N1CCN(S(=O)(=O)C2CCOC2)CC1` (centres unmarked) [I-N-179, 2-amino-6-fluoro-N-(4-(4-((tetrahydrofuran-3-yl)sulfonyl)piperazin-1-yl)pyridin-3-yl)pyrazolo[1,5-a]pyrimidine-3-carboxamide] was tested, and the “Cisplatin Sensitization Assay” value was “+++ (Cisplatin sensitization value of <0.02 μM)”.
In the case of `CN1CCC[C@@H]1C(=O)N1CCN(c2c(F)cncc2NC(=O)c2c(N)nn3cc(F)cnc23)CC1` [I-N-181, (R)-2-amino-6-fluoro-N-(5-fluoro-4-(4-(1-methylpyrrolidine-2-carbonyl)piperazin-1-yl)pyridin-3-yl)pyrazolo[1,5-a]pyrimidine-3-carboxamide], the “Cisplatin Sensitization Assay” value is reported as “+++ (Cisplatin sensitization value of <0.02 μM)”.
With `Nc1nn2cc(F)cnc2c1C(=O)Nc1cncc(F)c1N1CCN2C(=O)CC[C@@H]2C1` [I-N-182, (R)-2-amino-6-fluoro-N-(5-fluoro-4-(6-oxohexahydropyrrolo[1,2-a]pyrazin-2(1H)-yl)pyridin-3-yl)pyrazolo[1,5-a]pyrimidine-3-carboxamide] the “Cisplatin Sensitization Assay” value was “++ (Cisplatin sensitization value>0.02 μM but <0.2 μM)”.
In the case of `CN1CCOC2(CCN(c3ccncc3NC(=O)c3c(N)nn4cc(F)cnc34)CC2)C1` [I-N-183, 2-amino-6-fluoro-N-(4-(4-methyl-1-oxa-4,9-diazaspiro[5.5]undecan-9-yl)pyridin-3-yl)pyrazolo[1,5-a]pyrimidine-3-carboxamide], the “Cisplatin Sensitization Assay” value is reported as “+++ (Cisplatin sensitization value of <0.02 μM)”.
With `Nc1nn2cc(F)cnc2c1C(=O)Nc1cncc(F)c1N1CCC(c2nccs2)CC1` [I-N-184, 2-amino-6-fluoro-N-(5-fluoro-4-(4-(thiazol-2-yl)piperidin-1-yl)pyridin-3-yl)pyrazolo[1,5-a]pyrimidine-3-carboxamide] the “Cisplatin Sensitization Assay” value was “++ (Cisplatin sensitization value>0.02 μM but <0.2 μM)”.
`CCN1CCCC1C(=O)N1CCN(c2c(F)cncc2NC(=O)c2c(N)nn3cc(F)cnc23)CC1` (centres unmarked) [I-N-185, 2-amino-N-(4-(4-(1-ethylpyrrolidine-2-carbonyl)piperazin-1-yl)-5-fluoropyridin-3-yl)-6-fluoropyrazolo[1,5-a]pyrimidine-3-carboxamide] was tested, and the “Cisplatin Sensitization Assay” value was “++ (Cisplatin sensitization value>0.02 μM but <0.2 μM)”.
In the case of `Nc1nn2cc(F)cnc2c1C(=O)Nc1cncc(F)c1N1CCN2C(=O)CC[C@@H]2C1` [I-N-186, (R)-2-amino-6-fluoro-N-(5-fluoro-4-(6-oxohexahydropyrrolo[1,2-a]pyrazin-2(1H)-yl)pyridin-3-yl)pyrazolo[1,5-a]pyrimidine-3-carboxamide], the “Cisplatin Sensitization Assay” value is reported as “+++ (Cisplatin sensitization value of <0.02 μM)”.
With `Nc1nn2cc(F)cnc2c1C(=O)Nc1cncc(F)c1N1CCN(C(=O)CN2CCCC2)CC1` [I-N-187, 2-amino-6-fluoro-N-(5-fluoro-4-(4-(2-(pyrrolidin-1-yl)acetyl)piperazin-1-yl)pyridin-3-yl)pyrazolo[1,5-a]pyrimidine-3-carboxamide] the “Cisplatin Sensitization Assay” value was “+++ (Cisplatin sensitization value of <0.02 μM)”.
With `CN1CCC(S(=O)(=O)N2CCN(c3ccncc3NC(=O)c3c(N)nn4cc(F)cnc34)CC2)CC1` [I-N-188, 2-amino-6-fluoro-N-(4-(4-((1-methylpiperidin-4-yl)sulfonyl)piperazin-1-yl)pyridin-3-yl)pyrazolo[1,5-a]pyrimidine-3-carboxamide] the “Cisplatin Sensitization Assay” value was “+++ (Cisplatin sensitization value of <0.02 μM)”.
With `Nc1nn2cc(F)cnc2c1C(=O)Nc1cncc(F)c1N1CCC(N2CCOCC2)CC1` [I-N-189, 2-amino-6-fluoro-N-(5-fluoro-4-(4-morpholinopiperidin-1-yl)pyridin-3-yl)pyrazolo[1,5-a]pyrimidine-3-carboxamide] the “Cisplatin Sensitization Assay” value was “+++ (Cisplatin sensitization value of <0.02 μM)”.
For `CS(=O)(=O)C1CCN(c2ccncc2NC(=O)c2c(N)nn3cc(F)cnc23)CC1` [I-N-190, 2-amino-6-fluoro-N-(4-(4-(methylsulfonyl)piperidin-1-yl)pyridin-3-yl)pyrazolo[1,5-a]pyrimidine-3-carboxamide], the “Cisplatin Sensitization Assay” value was “+++ (Cisplatin sensitization value of <0.02 μM)”.
`CN1CCN(C(=O)C2CCN(c3c(F)cncc3NC(=O)c3c(N)nn4cc(F)cnc34)C2)CC1` (centres unmarked) [I-N-191, 2-amino-6-fluoro-N-(5-fluoro-4-(3-(4-methylpiperazine-1-carbonyl)pyrrolidin-1-yl)pyridin-3-yl)pyrazolo[1,5-a]pyrimidine-3-carboxamide] was tested, and the “Cisplatin Sensitization Assay” value was “+ (Cisplatin sensitization value>0.2 μM but <5 μM)”.
For `CN1CCN(CC2CCN(c3c(F)cncc3NC(=O)c3c(N)nn4cc(C5(C#N)CC5)cnc34)CC2)CC1` [I-N-192, 2-amino-6-(1-cyanocyclopropyl)-N-(5-fluoro-4-(4-((4-methylpiperazin-1-yl)methyl)piperidin-1-yl)pyridin-3-yl)pyrazolo[1,5-a]pyrimidine-3-carboxamide], the “Cisplatin Sensitization Assay” value was “+++ (Cisplatin sensitization value of <0.02 μM)”.
